From PMC8309005, “Novel Non-Congeneric Derivatives of the Choline Kinase Alpha Inhibitor ICL-CCIC-0019” (Pharmaceutics, 2021) come the findings set out here.

Structures are written as SMILES. A value given as a limit tells only on which side of the number the result lay.

Data set [1] can be described thus: Caco-2 permeability and efflux study. The class given is in vitro ADME, human. Particulars: human; for efflux ratio: Caco-2, read-out: Efflux ratio (Papp B-A/Papp A-B); for Papp A→B: Caco-2, apical to basolateral, read-out: Papp A-B; for Papp B→A: Caco-2, basolateral to apical, read-out: Papp B-A. Here is the method: The ADME study for ICL-CCIC-0019, CK14, CK145 (5), CK146 (4) and CK147 (8) was performed by Charles River Drug Discovery Services (Essex, UK).
The predicted in vitro pharmacokinetic characteristics of compounds were evaluated by four ADME assays, namely kinetic solubility assay, metabolic stability assay using human liver microsome S9, permeability and efflux study using the Caco-2 cell line, and matrix stability assay using fasted state simulated gastric fluid (FaSSGF). All tested CHKA inhibitors were highly soluble (>150 μM) in 0.1 M PBS (2% DMSO) (Table 1). […] The in vivo clearance was calculated to predict the actual clearance in humans by scaling the clearance values, which takes into account liver weight, microsomes per liver and liver blood flow. […] In Caco-2 cell permeability assay, drug permeability was investigated and presented as apparent permeability coefficients (Papp) in A to B (A-B, apical to basolateral direction) and B to A (B-A, basolateral to apical direction).
On the technique in general: Passage across Caco-2 layers is used to estimate intestinal permeability.

A further data set deals with DGK g (Homo sapiens, UniProt P49619). In words: Lipid kinase screening (ADP-Glo), DGK g. In kind it is biochemical. Here is the method:
(§1) The lipid kinase screening for ICL-CCIC-0019, CK14, CK145 (5), CK146 (4) and CK147 (8) (testing concentration for all compounds: 10 μM) was performed by MRC PPU International Centre for Kinase Profiling (Dundee, UK). The lipid kinase screening panel includes 15 human recombinant lipid kinases and the tests used Promega ADP Glo^TM High Throughput Assay kit (Promega, Southampton, UK). For each assay, reference compounds were used as quality control. Finally, mean percentage activity inhibited by compounds and standard deviation for all the repeats were calculated.

The next data set deals with DGK b (Homo sapiens, UniProt Q9Y6T7). In words: Lipid kinase screening (ADP-Glo), DGK b. In kind it is biochemical. The procedure: as §1
A general note: In ADP-Glo the light output rises with the ADP produced.

In data set [2] the test system is C4-2B prostate cancer cells. In words: Cellular uptake and metabolism study in C4-2B with or without serum (HPLC). The note with it: 50 μM, 4 h; for mean cellular uptake: mean of ICL-CCIC-0019 and CK146; for detection in cell lysates by HPLC (in words): both FCS groups.
Method: Cell lysate sample preparation: C4-2B prostate cancer cells were seeded into cell culture dishes (150 × 25 mm) at a density of 7 × 10^6 per dish. The cells were allowed to settle and grow for another 48 h. The cells were treated with ICL-CCIC-0019, CK146, CK147 and CK148 (50 μM of 7 mL RPMI medium with or without 10% FCS) for 4 h in the incubator. After 4-h incubation, the aliquots of medium were collected (see the medium sample preparation section). Cells were scraped, washed with ice-cold PBS three times and collected by centrifugation (4 °C, 4000× g). The cell pellets were resuspended in 500 μL of chilled acetonitrile:PBS (50:50, v/v) for cell disruption and homogenization. The cell disruption was performed by a Precellys® 24 homogenizer (Bertin Technologies, Montigny-le-Bretonneux, France) at 4 °C. After acetonitrile evaporation at room temperature, 50 μL of cell lysis was taken for protein analysis. Another 100 μL of the supernatant obtained after centrifuge (4 °C, 15,000× g) was resuspended in 100 μL formic acid:water (0.2%, v/v). Next, 100 μL of the filtered solution was analyzed by HPLC system described in Supplementary HPLC method D. Three injections were performed for each sample. Intracellular drug was normalized to cellular protein of each plate using BCA assay. Medium sample preparation for HPLC analysis: 250-μL aliquots of medium (with or without 10% FCS) were transferred into 1.5-mL tube containing 250 μL acetonitrile. After a brief vortex, the tube was placed at 4 °C for 30 min for protein precipitation. One hundred microliters of the resulting supernatant from centrifuge (4 °C, 15,000× g) were resuspended in 100 μL formic acid: water (0.2%, v/v). One hundred microliters of the filtered sample were analyzed by HPLC system described in Supplementary HPLC method D. Three injections were performed for each sample.
A further data set addresses PI3K a (Homo sapiens, UniProt P42336). In words: Lipid kinase screening (ADP-Glo), PI3K a. The class given is biochemical. Here is the method: as §1
For another data set, the target named is T1, SPHK2 (Homo sapiens, UniProt Q9NRA0).
T1 sequence (Q9NRA0 1-654): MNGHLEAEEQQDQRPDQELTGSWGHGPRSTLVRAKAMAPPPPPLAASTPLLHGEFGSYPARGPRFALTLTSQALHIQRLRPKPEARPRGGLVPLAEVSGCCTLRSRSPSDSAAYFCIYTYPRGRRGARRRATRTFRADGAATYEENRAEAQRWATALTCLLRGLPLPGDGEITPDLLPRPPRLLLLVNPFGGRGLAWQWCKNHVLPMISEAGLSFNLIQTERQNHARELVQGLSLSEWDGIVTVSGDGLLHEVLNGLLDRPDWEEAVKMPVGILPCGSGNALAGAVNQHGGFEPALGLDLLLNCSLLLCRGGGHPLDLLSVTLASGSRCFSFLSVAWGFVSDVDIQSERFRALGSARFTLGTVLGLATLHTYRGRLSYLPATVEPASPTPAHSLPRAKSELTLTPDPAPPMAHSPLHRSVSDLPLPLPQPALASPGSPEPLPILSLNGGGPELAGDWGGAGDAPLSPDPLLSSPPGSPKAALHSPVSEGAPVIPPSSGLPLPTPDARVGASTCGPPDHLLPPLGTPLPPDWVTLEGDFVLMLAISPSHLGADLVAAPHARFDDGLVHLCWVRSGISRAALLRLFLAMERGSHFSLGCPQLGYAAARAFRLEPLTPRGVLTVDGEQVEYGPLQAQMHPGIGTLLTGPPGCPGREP
In words: Lipid kinase screening (ADP-Glo), SPHK2. The class given is biochemical. Here is the method:
as §1

Data set [3] deals with HCT-116 colorectal cancer cells. In words: Cellular uptake and metabolism study in HCT-116 (HPLC). The class given is cell-based, human. The note with it: HCT-116, 50 μM. The procedure:
The cell pellets were resuspended in 1 mL water: acetonitrile: formic acid (95:5:0.2, v/v/v) and disrupted by an ultrasonic cell disruptor (Soniprep 150, MSE Ltd., London, UK) for 1 min on ice. One hundred microliters of the filtered supernatant from centrifuge (4 °C, 15,000× g) were analyzed by HPLC. Three injections were performed for each sample. […] The HPLC method used in this study is described in Supplementary HPLC method C.

In data set [4] the test system is four cancer cell lines (HCT-116, A549, HepG2, Caco-2). In words: Anti-proliferative SRB assay, mean of four cancer cell lines. In kind it is cell-based. The note with it: Homo sapiens. The procedure: (§2) Half-maximal growth inhibitory concentrations (GI50) were determined using sulforhodamine B (SRB) assay as described elsewhere. In brief, cells were seeded in 96-wells at respective cell densities determined by their cell growth curves. After 24 h, the cells were treated in six replicates with medium or different concentrations of CHKA inhibitors in medium and incubated for another 72 h. On completion of incubation, the cells were fixed with 10% trichloroacetic acid (TCA) and stained with 0.4% SRB in 1% acetic acid. The stained protein was solubilized with 10 mM Tris base and optical density values were measured at 540 nm using a Multiskan® EX Micro plate photometer (Thermo Scientific, Loughborough, UK). Growth inhibition curves were plotted as percentage of the control groups and GI50 data were determined by least squares fitting method using GraphPad Prism 7.0. All the chemicals used in this experiment were obtained from Sigma-Aldrich (Gillingham, UK).
(In SRB staining, fixed cells bind dye roughly in proportion to their protein.)

The target in another data set is CHK a (CHKA) (Homo sapiens, UniProt P35790). In words: Lipid kinase screening (ADP-Glo), CHKA. The class given is biochemical. The note with it: for % Inhibition CHK a: 10 μM. The procedure:
as §1

Data set [5] relates to eight cell lines (22Rv1, C4-2B, LNCap, PC3, PNT1A, R1-AD1, R1-D567, HCT-116). In words: Anti-proliferative SRB assay, mean across eight cell lines. The class given is cell-based. The note with it: Homo sapiens. Here is the method:
as §2

Another data set concerns 22Rv1 cell line. In words: Anti-proliferative SRB assay, 22Rv1. The class given is cell-based. Particulars: Homo sapiens; 22Rv1, PSMA +; Table S3, ± SD. Here is the method:
as §2

Sequence of DGK g (P49619 whole entry): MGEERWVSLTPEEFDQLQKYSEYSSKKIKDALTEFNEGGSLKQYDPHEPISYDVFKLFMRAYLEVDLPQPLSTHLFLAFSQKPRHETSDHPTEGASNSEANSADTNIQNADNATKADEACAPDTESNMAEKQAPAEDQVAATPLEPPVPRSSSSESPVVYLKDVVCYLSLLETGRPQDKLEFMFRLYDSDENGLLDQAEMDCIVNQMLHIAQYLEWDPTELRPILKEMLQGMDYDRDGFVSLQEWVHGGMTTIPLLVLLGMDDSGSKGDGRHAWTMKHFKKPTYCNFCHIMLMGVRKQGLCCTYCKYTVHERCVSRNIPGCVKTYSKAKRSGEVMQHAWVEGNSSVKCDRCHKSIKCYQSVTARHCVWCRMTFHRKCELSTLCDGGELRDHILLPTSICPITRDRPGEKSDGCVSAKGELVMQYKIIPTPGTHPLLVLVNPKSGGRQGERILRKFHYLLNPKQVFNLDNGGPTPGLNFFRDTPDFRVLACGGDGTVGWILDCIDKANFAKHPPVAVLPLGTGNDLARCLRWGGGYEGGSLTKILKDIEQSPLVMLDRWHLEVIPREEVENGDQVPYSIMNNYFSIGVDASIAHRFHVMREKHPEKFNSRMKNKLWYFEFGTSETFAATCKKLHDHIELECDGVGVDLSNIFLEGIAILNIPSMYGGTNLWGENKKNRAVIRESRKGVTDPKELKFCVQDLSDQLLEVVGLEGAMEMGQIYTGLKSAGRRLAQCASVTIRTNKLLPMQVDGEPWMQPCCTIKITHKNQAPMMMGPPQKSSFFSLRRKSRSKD
Sequence of PI3K a (P42336 whole entry): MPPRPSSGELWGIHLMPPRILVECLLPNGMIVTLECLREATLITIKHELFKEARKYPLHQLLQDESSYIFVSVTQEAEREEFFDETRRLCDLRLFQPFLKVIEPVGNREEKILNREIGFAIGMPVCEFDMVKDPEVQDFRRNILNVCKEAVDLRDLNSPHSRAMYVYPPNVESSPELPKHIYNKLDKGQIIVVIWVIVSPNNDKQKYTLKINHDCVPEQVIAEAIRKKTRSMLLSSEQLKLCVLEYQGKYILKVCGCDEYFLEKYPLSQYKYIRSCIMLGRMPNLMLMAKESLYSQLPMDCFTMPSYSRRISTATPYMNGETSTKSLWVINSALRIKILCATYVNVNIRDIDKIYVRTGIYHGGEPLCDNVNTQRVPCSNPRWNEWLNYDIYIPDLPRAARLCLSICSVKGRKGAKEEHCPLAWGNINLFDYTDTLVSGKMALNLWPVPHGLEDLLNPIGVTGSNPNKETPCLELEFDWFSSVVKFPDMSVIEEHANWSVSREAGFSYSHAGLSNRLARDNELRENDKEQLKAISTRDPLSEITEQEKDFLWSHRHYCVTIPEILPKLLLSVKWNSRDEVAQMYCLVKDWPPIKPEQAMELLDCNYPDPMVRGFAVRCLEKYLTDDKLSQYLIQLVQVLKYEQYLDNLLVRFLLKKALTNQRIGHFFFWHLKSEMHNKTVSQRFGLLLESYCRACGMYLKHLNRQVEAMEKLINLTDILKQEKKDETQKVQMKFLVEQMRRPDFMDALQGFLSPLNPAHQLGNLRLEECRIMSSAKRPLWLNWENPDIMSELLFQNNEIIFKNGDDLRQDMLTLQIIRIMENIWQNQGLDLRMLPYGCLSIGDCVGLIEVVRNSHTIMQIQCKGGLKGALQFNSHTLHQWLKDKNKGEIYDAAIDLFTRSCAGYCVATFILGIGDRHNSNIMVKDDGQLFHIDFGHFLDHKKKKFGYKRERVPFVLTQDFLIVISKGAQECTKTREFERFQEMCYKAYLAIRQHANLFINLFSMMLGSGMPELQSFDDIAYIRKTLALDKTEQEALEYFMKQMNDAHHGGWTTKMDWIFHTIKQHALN
Sequence of PI3K a (P27986 whole entry partner): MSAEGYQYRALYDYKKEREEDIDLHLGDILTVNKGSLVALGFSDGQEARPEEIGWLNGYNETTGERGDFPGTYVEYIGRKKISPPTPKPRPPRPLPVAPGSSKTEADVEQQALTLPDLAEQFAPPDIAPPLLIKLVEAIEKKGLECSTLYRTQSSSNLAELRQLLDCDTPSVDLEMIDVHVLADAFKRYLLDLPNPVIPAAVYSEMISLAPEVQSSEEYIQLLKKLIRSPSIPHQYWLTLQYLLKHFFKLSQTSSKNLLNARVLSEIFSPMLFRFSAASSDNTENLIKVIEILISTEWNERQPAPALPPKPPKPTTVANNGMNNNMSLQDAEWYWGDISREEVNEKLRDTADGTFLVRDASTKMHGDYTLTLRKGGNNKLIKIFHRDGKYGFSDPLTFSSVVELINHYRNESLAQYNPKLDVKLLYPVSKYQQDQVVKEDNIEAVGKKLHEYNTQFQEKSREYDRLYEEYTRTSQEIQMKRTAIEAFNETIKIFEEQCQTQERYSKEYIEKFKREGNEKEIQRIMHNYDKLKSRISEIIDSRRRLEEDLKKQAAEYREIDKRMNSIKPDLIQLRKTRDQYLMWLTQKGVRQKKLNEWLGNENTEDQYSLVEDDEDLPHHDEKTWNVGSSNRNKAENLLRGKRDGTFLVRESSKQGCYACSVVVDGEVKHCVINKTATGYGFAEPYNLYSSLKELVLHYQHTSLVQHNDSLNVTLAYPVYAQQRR
Sequence of CHK a (CHKA) (P35790 whole entry): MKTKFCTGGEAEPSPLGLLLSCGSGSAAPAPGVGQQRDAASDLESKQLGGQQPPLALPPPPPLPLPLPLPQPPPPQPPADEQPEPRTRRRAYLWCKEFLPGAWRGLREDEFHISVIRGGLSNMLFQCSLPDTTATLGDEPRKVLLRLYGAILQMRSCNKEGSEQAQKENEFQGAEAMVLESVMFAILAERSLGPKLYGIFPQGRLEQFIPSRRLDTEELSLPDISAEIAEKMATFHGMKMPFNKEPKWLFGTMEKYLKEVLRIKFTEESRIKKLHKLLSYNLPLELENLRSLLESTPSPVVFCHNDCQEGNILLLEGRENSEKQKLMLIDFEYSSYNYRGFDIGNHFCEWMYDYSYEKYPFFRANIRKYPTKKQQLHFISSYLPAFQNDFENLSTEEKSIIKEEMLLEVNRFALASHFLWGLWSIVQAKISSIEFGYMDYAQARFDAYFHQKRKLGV

Regarding `CN(C)c1cc[n+](CCCCCCCCCCCC[n+]2ccc(N(C)C)cc2)cc1` [ICL-CCIC-0019], in data set [1], the efflux ratio is greater than 8.6. Also, the apparent permeability from apical to basolateral (Papp A→B) – broadly, the apparent permeability from the apical to the basolateral side of a cell layer – in data set [1] was less than 0.1 ×10⁻⁶ cm/s. Also, the basolateral-to-apical permeability (Papp B→A) – broadly, the apparent permeability from the basolateral to the apical side of a cell layer – in data set [1] came out at 0.9 ×10⁻⁶ cm/s. For the same molecule, the inhibition – broadly, the change of the read-out against control, counted positive when it falls – at 10 µM against DGK g turned out to be 7.8%; against DGK b, 8.6%; against PI3K a it was 1%; at SPHK2, 22.4%; at CHK a (CHKA), 53%. For the same molecule, the figures for the mean cellular uptake in data set [2] (FCS negative group) and in data set [2] (FCS positive group (10% FCS)) were 34.1 ± 0.6 % μg^−1 protein and 24.9 ± 1.4 % μg^−1 protein, respectively. Further, in data set [2], the “detection in cell lysates by HPLC (in words)” value is “detected”. The “cellular uptake relative to CK145” value in [3] (1 h and 2 h post-incubation) is “approximately two-fold”. Besides, the results for the 50% growth inhibitory concentration (GI50) (in [4]; in data set [5]; with 22Rv1 cell line) were 0.5 ± 0.02 µM, 0.6 ± 0.1 µM and 0.91 ± 0.13 µM, respectively. Besides, the “% Inhibition CHK a” value at CHK a (CHKA) worked out at 53.4%.

`CC(=O)NCCCCC(NC(=O)OC(C)(C)C)C(=O)N1CCN(c2cc[n+](CCCCCCCCCCCCCC[n+]3ccc(N(C)C)cc3)cc2)CC1` (stereo not shown) [CK145]: the efflux ratio in data set [1] was greater than 2.8. In addition, in [1], the Papp A→B is less than 0.1 ×10⁻⁶ cm/s. Moreover, the Papp B→A in data set [1] amounted to 0.3 ×10⁻⁶ cm/s. Besides, the inhibition at 10 µM against DGK g was 13.2%; against DGK b, 8%; against PI3K a, -1%; on SPHK2, 13.2%; against CHK a (CHKA) it was 63%. In [3] (1 h and 2 h, HPLC), the “in vitro conversion to CK146 or intermediates (in words)” value is “not observed”. Besides, the results for the GI50 (in [4]; in the data set on 22Rv1 cell line) were 5 ± 0.3 µM and 45.6 ± 6.4 µM, respectively. Further, the “% Inhibition CHK a” value at CHK a (CHKA) is given as 62.9%.

On to `CN(C)c1cc[n+](CCCCCCCCCCCCCC[n+]2ccc(N3CCNCC3)cc2)cc1` [CK146], for which the efflux ratio in [1] was greater than 2.6. Besides, the apical-to-basolateral permeability (Papp A→B) in data set [1] was less than 0.1 ×10⁻⁶ cm/s. Further, in data set [1], the apparent permeability from basolateral to apical (Papp B→A) is 0.3 ×10⁻⁶ cm/s. Also, the inhibition at 10 µM is 10.7% against DGK g; 1.1% on DGK b; -5.4% against PI3K a; 10% on SPHK2; 69% at CHK a (CHKA). The mean cellular uptake is on record as 34.1 ± 0.6 % μg^−1 protein in [2] (FCS negative group) and 24.9 ± 1.4 % μg^−1 protein in [2] (FCS positive group (10% FCS)). In data set [2], the “detection in cell lysates by HPLC (in words)” value is “detected”. Besides, the GI50 (as a rule, the concentration at which growth is held to half of that of the control) in data set [4] is 2.5 ± 0.3 µM; in data set [5], 3.8 ± 0.9 µM; in the data set with 22Rv1 cell line, 4.98 ± 1.5 µM. The “% Inhibition CHK a” value at CHK a (CHKA) was determined as 69.1%.
